Experiments:
T7 RNA polymerase = T7 RNA polymerase (Escherichia phage T7, UniProt P00573); experiment: In vitro transcription (IVT) of mRNA with modified NTP; assay type: biochemical; settings: modified NTP at 100% substitution of the corresponding natural nucleotide; human leptin template; yield as percent of unmodified mRNA yield
Text: The modified synthetic mRNA was generated by in vitro transcription (IVT) incorporating the chemically modified nucleotide triphosphate (NTP) at 100% substitution of the corresponding natural nucleotide. The IVT plasmid template used contained a T7 promoter sequence and the human leptin coding sequence (Protein Accession #NP_000221) flanked by a 5′ untranslated region (UTR) of Tobacco Etch Virus with a strong Kozak sequence, and 2 tandem copies of the human beta-globin 3′UTR (Holtkamp S et al. (2006) Blood 108: 4009-4017) followed by a poly-A tail comprising 120 nucleotides in length.
A typical in vitro transcription reaction was done using the following protocol:
The IVT reagents in the Table above were mixed and incubated for 1-2 hours at 37° C. The DNA template was then digested with 0.04 U/μL DNase (New England Biolabs), and incubated for 30 minutes at 37° C. The mRNA was precipitated by adding lithium chloride (LiCl) solution (Ambion, Cat. #AM9480) to a final concentration of 2.81 M and incubating for >1 hour at −20° C. The mixture was centrifuged at 20,000×g for 15 minutes at 4° C., and then the supernatant was removed and the pellet washed with 70% ethanol. After centrifugation for 10 minutes, the ethanol was removed and the pellet was resuspended in nuclease-free water. In cases where the mRNA is used for HPLC purification, a second precipitation was done by adding 10% volume of 3 M sodium acetate pH 5.5 and 1 volume of room temperature isopropanol followed by incubation overnight at −20° C. The mRNA was centrifuged, washed and resuspended as described above. mRNA concentration was quantified using the NanoDrop and analyzed using an Agilent 2100 Bioanalyzer to confirm proper size and quality (i.e. no degradation). The modified mRNA can then be stored at −80° C. until capping.

HEK293 cells = experiment: Modified mRNA transfection and in vitro translation (secreted leptin ELISA); assay type: cell-based; settings: 1.5 micrograms capped leptin mRNA, Lipofectamine 2000, secreted leptin in medium at 24 h post-transfection
Description: Prior to transfection, the cells were seeded at a density 5×10^5 cells per well in 6-well plates. The following day, 1.5 micrograms of capped unmodified or chemically modified leptin mRNA was complexed with Lipofectamine 2000 (Life Technologies) and transfected into cells according to the manufacturer's protocol. At 24 h post-transfection, secreted leptin protein concentration in the culture medium was measured by an Enzyme-linked immunosorbent assay (ELISA) using the Human Leptin Quantikine ELISA kit from R&D Systems (Minneapolis, Minn.). Protein expression levels for chemically modified mRNAs are shown as a percent of the unmodified mRNA level.

T7 RNA polymerase, sequence (P00573 whole entry): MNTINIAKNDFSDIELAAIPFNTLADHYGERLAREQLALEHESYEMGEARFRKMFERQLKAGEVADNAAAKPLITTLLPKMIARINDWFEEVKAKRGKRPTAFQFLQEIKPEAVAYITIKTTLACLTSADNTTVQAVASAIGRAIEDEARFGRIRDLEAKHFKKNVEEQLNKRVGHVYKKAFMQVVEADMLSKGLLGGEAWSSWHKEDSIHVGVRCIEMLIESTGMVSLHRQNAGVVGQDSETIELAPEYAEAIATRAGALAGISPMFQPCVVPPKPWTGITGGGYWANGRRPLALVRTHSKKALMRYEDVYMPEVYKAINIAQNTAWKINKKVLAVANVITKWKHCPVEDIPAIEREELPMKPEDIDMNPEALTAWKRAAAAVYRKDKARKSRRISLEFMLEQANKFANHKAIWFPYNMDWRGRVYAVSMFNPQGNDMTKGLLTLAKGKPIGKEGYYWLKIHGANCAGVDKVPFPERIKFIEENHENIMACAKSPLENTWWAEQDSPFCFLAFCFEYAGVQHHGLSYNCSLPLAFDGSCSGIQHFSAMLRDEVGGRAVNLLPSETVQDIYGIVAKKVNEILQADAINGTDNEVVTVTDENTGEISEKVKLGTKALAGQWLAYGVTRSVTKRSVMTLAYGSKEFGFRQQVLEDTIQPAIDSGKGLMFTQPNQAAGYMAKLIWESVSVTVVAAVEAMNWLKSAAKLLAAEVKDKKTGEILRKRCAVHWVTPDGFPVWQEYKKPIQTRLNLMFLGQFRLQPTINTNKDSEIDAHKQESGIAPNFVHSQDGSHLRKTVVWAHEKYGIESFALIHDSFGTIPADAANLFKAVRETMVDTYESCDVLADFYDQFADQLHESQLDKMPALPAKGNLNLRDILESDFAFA

1-methoxyethyl-pseudouridine [compound 11]
In vitro transcription (mRNA quantity relative to unmodified NTP in percentage) (T7 RNA polymerase): >50%
In vitro translation (Protein quantity relative to unmodified mRNA in percentage) (HEK293 cells): <50%

1-methyoxymethyl-pseudouridine [compound 10]
In vitro transcription (mRNA quantity relative to unmodified NTP in percentage) (T7 RNA polymerase): >50%
In vitro translation (Protein quantity relative to unmodified mRNA in percentage) (HEK293 cells): >50%

5-methoxycarbonyamino-uridine [compound 5]
In vitro transcription (mRNA quantity relative to unmodified NTP in percentage) (T7 RNA polymerase): >50%
In vitro translation (Protein quantity relative to unmodified mRNA in percentage) (HEK293 cells): <50%

7-methyl-9-deazaguanosine [compound 16]
In vitro transcription (mRNA quantity relative to unmodified NTP in percentage) (T7 RNA polymerase): >50%
In vitro translation (Protein quantity relative to unmodified mRNA in percentage) (HEK293 cells): <50%

From patent US11377656B2, “Chemically modified messenger RNA's” (Novartis AG, priority 2016, dated 2022)
